How the values were obtained:
p38α = biological target: T1, p38α (Homo sapiens, UniProt Q16539); assay: p38 MAP Kinase assay: inhibition of ATF2 phosphorylation, ELISA; format: biochemical; settings: ATF2 phosphorylation; read-out: [ENZ] P38 ALPHA, IC50, ELISA
T1 construct: p38 MAP Kinases are recombinant human full-length proteins with an amino-terminal GST fusion; GST (N); purchased Upstate Biotechnology Inc; host or cells: E. coli
Procedure, shortened: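 In vitro phosphorylation of ATF2 at Thr69 by recombinant human GST-p38 MAP kinase, read by anti-phospho-ATF2 ELISA at 450 nm. Enzyme and compound pre-incubated 15 min at RT, then 30 min reaction at 37 °C with 40 μM ATP and 1.25 μM ATF2; buffer with or without 1% HSA (Method II or I).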

[1] = tested on: TNFα release from THP-1 cells; assay: Inhibition of TNFα release from LPS-stimulated THP-1 cells, ELISA; format: cell-based; settings: Homo sapiens, THP-1, THP-1 cells, read-out: [CELL] THP-1, IC50, TNF ALPHA, ELISA
Procedure, shortened: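 TNFα released into supernatant after 18 h of 10 μg/ml LPS stimulation was quantified by ELISA and IC50 taken as 50% reduction by non-linear regression. THP-1 cells (10^6/ml; medium with 10% FBS, serum-free or 1% HSA) saw compound for 30 min at 37 °C beforehand; final DMSO ≤0.5%.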

T1 sequence (Q16539 whole entry, the tested form may be a part): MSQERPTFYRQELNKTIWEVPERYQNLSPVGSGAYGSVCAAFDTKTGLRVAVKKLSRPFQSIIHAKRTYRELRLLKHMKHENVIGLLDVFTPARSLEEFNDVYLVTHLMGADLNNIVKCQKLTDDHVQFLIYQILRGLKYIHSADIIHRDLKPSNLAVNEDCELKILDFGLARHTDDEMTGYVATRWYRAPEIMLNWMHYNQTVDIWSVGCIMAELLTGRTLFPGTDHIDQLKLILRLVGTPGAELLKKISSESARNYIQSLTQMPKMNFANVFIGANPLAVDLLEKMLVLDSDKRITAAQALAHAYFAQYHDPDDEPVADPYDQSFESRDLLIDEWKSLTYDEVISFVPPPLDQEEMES

melting point | IC50 (p38α) | IC50 [1] | Compound
102 to 104 °C | 7.4 nM | 565 nM | CC(=O)N1CCN(c2nccc(Oc3ccc(NC(=O)c4cc(F)cc(N5CCCCC5)c4)c4ccccc34)n2)CC1 [Compound B400, N-(4-{[2-(4-Acetylpiperazin-1-yl)pyrimidin-4-yl]oxy}-1-naphthyl)-3-fluoro-5-piperidin-1-ylbenzamide]
221 to 222 °C | 39.9 nM | 2210 nM | Cc1ncsc1CCOc1ccc(NC(=O)c2cc(F)cc(N3CCCCC3)c2)c2ccccc12 [Compound B424, 3-Fluoro-N-{4-[2-(4-methyl-1,3-thiazol-5-yl)ethoxy]-1-naphthyl}-5-piperidin-1-ylbenzamide]
118 to 120 °C | 27.3 nM | 412 nM | C[C@@H]1CN(c2nccc(Oc3ccc(NC(=O)c4cc(F)cc(N5CCOCC5)c4)c4ccccc34)n2)C[C@H](C)O1 [Compound B364, N-[4-({2-[(2R,6S)-2,6-Dimethylmorpholin-4-yl]pyrimidin-4-yl}oxy)-1-naphthyl]-3-fluoro-5-morpholin-4-ylbenzamide]
140 to 142 °C | 17.8 nM | 689 nM | O=C1CN(c2nccc(Oc3ccc(NC(=O)c4cc(F)cc(N5CCCCC5)c4)c4ccccc34)n2)CCN1 [Compound B421, 3-Fluoro-N-(4-{[2-(3-oxopiperazin-1-yl)pyrimidin-4-yl]oxy}-1-naphthyl)-5-piperidin-1-ylbenzamide]
65 to 66 °C | 808 nM | 4120 nM | CC1CCC(Oc2cc(F)cc(C(=O)Nc3ccc(OCCN4CCOCC4)c4ccccc34)c2)C1 (stereo not drawn) [Compound B227, 3-Fluoro-5-[(3-methylcyclopentyl)oxy]-N-[4-(2-morpholin-4-ylethoxy)-1-naphthyl]benzamide]
92 to 94 °C | 27.1 nM | 274 nM | COC(CN(C)c1nccc(Oc2ccc(NC(=O)c3cc(F)cc(N4CCOCC4)c3)c3ccccc23)n1)OC [Compound B351, N-[4-({2-[(2,2-Dimethoxyethyl)(methyl)amino]pyrimidin-4-yl}oxy)-1-naphthyl]-3-fluoro-5-morpholin-4-ylbenzamide]
130 to 132 °C | 275 nM | 232 nM | CSc1nccc(Oc2ccc(NC(=O)c3cc(F)cc(OC4CCCCC4)c3)c3ccccc23)n1 [Compound B303, 3-(Cyclohexyloxy)-5-fluoro-N-(4-{[2-(methylthio)pyrimidin-4-yl]oxy}-1-naphthyl)benzamide]
203 to 206 °C | 7860 nM | 4280 nM | CC1=NC(C)(COc2ccc(NC(=O)c3cc(F)cc(N4CCOCC4)c3)c3ccccc23)CO1 (stereo not drawn) [Compound B232, N-{4-[(2,4-Dimethyl-4,5-dihydro-1,3-oxazol-4-yl)methoxy]-1-naphthyl}-3-fluoro-5-morpholin-4-ylbenzamide]
105 to 107 °C | 7810 nM | > 10000 nM | COc1cccc(C(=O)Nc2ccc(OCCN3CCOCC3)c3ccccc23)c1 [Compound B60, 3-Methoxy-N-[4-(2-morpholin-4-ylethoxy)-1-naphthyl]benzamide]
117 to 118 °C | 22.2 nM | > 1000 nM | CC1CCN(c2nccc(Oc3ccc(NC(=O)c4cc(F)cc(N5CCOCC5)c4)c4ccccc34)n2)CC1 [Compound B335, 3-Fluoro-N-(4-{[2-(4-methylpiperidin-1-yl)pyrimidin-4-yl]oxy}-1-naphthyl)-5-morpholin-4-ylbenzamide]
127 to 129 °C | 31.9 nM | 30.8 nM | O=C(Nc1ccc(Oc2ccnc(NCCO)n2)c2ccccc12)c1cc(F)cc(N2CCOCC2)c1 [Compound B252, 3-Fluoro-N-[4-({2-[(2-hydroxyethyl)amino]pyrimidin-4-yl}oxy)-1-naphthyl]-5-morpholin-4-ylbenzamide]
108 to 110 °C | 19.7 nM | 141 nM | O=C1CN(c2nccc(Oc3ccc(NC(=O)c4cc(F)cc(N5CCOCC5)c4)c4ccccc34)n2)CCN1 [Compound B368, 3-Fluoro-5-morpholin-4-yl-N-(4-{[2-(3-oxopiperazin-1-yl)pyrimidin-4-yl]oxy}-1-naphthyl)benzamide]
195 to 196 °C | 17.1 nM | 225 nM | O=C(Nc1ccc(Oc2ccnc(N3CCC4(CC3)OCCO4)n2)c2ccccc12)c1cc(F)cc(N2CCCCC2)c1 [Compound B378, N-(4-{[2-(1,4-Dioxa-8-azaspiro[4.5]dec-8-yl)pyrimidin-4-yl]oxy}-1-naphthyl)-3-fluoro-5-piperidin-1-ylbenzamide]
160 to 162 °C | 6.6 nM | > 1000 nM | N#CNc1nccc(Oc2ccc(NC(=O)c3cc(F)cc(N4CCCCC4)c3)c3ccccc23)n1 [Compound B380, N-(4-{[2-(Cyanoamino)pyrimidin-4-yl]oxy}-1-naphthyl)-3-fluoro-5-piperidin-1-ylbenzamide]
102 to 105 °C | 9280 nM | > 10000 nM | CCC1CCC(Oc2cc(F)cc(C(=O)Nc3ccc(OCCN4CCOCC4)c4ccccc34)c2)CC1 (stereo not drawn) [Compound B194, 3-[(4-Ethylcyclohexyl)oxy]-5-fluoro-N-[4-(2-morpholin-4-ylethoxy)-1-naphthyl]benzamide]
240 to 241 °C | 145 nM | 2870 nM | CCn1c(COc2ccc(NC(=O)c3cc(F)cc(N4CCC(C)CC4)c3)c3ccccc23)n[nH]c1=O [Compound B220, N-[4-(4-Ethyl-5-oxo-4,5-dihydro-1H-[1,2,4]triazol-3-ylmethoxy)-naphthalen-1-yl]-3-fluoro-5-(4-methyl-piperidin-1-yl)-benzamide]
98 to 100 °C | 15.2 nM | 136 nM | O=C(Nc1ccc(Oc2ccnc(NCCN3CCCCC3)n2)c2ccccc12)c1cc(F)cc(N2CCOCC2)c1 [Compound B343, 3-Fluoro-5-morpholin-4-yl-N-[4-({2-[(2-piperidin-1-ylethyl)amino]pyrimidin-4-yl}oxy)-1-naphthyl]benzamide]
80 to 82 °C | 826 nM | 7520 nM | O=C(Nc1ccc(OCCc2cccnc2)c2ccccc12)c1cc(F)cc(N2CCOCC2)c1 [Compound B190]
112 to 114 °C | 11.4 nM | 311 nM | O=C(Nc1ccc(Oc2ccnc(NC3CCC3)n2)c2ccccc12)c1cc(F)cc(N2CCCCC2)c1 [Compound B383, N-(4-{[2-(Cyclobutylamino)pyrimidin-4-yl]oxy}-1-naphthyl)-3-fluoro-5-piperidin-1-ylbenzamide]
180 to 181 °C | 5.2 nM | 431 nM | O=C(Nc1ccc(Oc2ccnc(N3CCCC(O)C3)n2)c2ccccc12)c1cc(F)cc(N2CCOCC2)c1 (stereo not drawn) [Compound B346, 3-Fluoro-N-(4-{[2-(3-hydroxypiperidin-1-yl)pyrimidin-4-yl]oxy}-1-naphthyl)-5-morpholin-4-ylbenzamide]
88 to 89 °C | 3 nM | 115 nM | O=C(Nc1ccc(Oc2ccnc(NCCN3CCCCC3)n2)c2ccccc12)c1cc(F)cc(N2CCCCC2)c1 [Compound B390, 3-Fluoro-5-piperidin-1-yl-N-[4-({2-[(2-piperidin-1-ylethyl)amino]pyrimidin-4-yl}oxy)-1-naphthyl]benzamide]
90 to 92 °C | 1110 nM | > 10000 nM | O=C1CN(CCCOc2ccc(NC(=O)c3cc(F)cc(N4CCCCC4)c3)c3ccccc23)CCN1 [Compound B175, 3-Fluoro-N-{4-[3-(3-oxo-piperazin-1-yl)-propoxy]-naphthalen-1-yl}-5-piperidin-1-yl-benzamide]
142 to 143 °C | 587 nM | 780 nM | CSc1nccc(Oc2ccc(NC(=O)c3cc(F)cc(N4CCC(C)CC4)c3)c3ccccc23)n1 [Compound B247, 3-Fluoro-5-(4-methylpiperidin-1-yl)-N-(4-{[2-(methylthio)pyrimidin-4-yl]oxy}-1-naphthyl)benzamide]
175 to 176 °C | 15.1 nM | 530 nM | O=C(Nc1ccc(Oc2ccnc(-n3ccnc3)n2)c2ccccc12)c1cc(F)cc(N2CCCCC2)c1 [Compound B379]
73 to 75 °C | 441 nM | 2610 nM | COc1ccc(CCOc2ccc(NC(=O)c3cc(F)cc(N4CCOCC4)c3)c3ccccc23)cc1OC [Compound B189, N-{4-[2-(3,4-Dimethoxyphenyl)ethoxy]-1-naphthyl}-3-fluoro-5-morpholin-4-ylbenzamide]
94 to 96 °C | 44.6 nM | 607 nM | CC(C)N(C)c1nccc(Oc2ccc(NC(=O)c3cc(F)cc(N4CCOCC4)c3)c3ccccc23)n1 [Compound B322, 3-Fluoro-N-[4-({2-[isopropyl(methyl)amino]pyrimidin-4-yl}oxy)-1-naphthyl]-5-morpholin-4-ylbenzamide]
135 to 136 °C | 11.9 nM | 36.1 nM | O=C(Nc1ccc(Oc2ccnc(NC3CCCCC3)n2)c2ccccc12)c1cc(F)cc(N2CCOCC2)c1 [Compound B323, N-(4-{[2-(Cyclohexylamino)pyrimidin-4-yl]oxy}-1-naphthyl)-3-fluoro-5-morpholin-4-ylbenzamide]
